Test results: paper PMC10707934, “Design and Synthesis of Novel α-Methylchalcone Derivatives, Anti-Cervical Cancer Activity, and Reversal of Drug Resistance in HeLa/DDP Cells” (Molecules, 2023)

Test system: P-gp
Test: Western blot, P-gp expression in HeLa/DDP cells
Assay type: cell-based, human
Conditions: 48 h, 0.25, 0.5, or 1 μM

SMILES: COc1ccc(/C=C(\C)C(=O)c2ccc(Cl)c(Cl)c2)cc1OC [Compound 3k, (E)-1-(3,4-Dichlorophenyl)-3-(3,4-dimethoxyphenyl)-2-methylprop-2-en-1-one]
- expression of P-gp: remained unchanged
